Laboratory results taken from PubChem BioAssay (NCI).
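Briefly, cells in 96-well plates were exposed to five compound concentrations for 48 h, and endpoints were estimated by linear interpolation. GI50 = concentration required for 50% inhibition of growth. TGI is the concentration that stops growth completely.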

Key:
Experiment in all cases: DTP human tumour cell line panel, 48 h; in the data active = GI50 below about 0.43 µM; inactive = the rest
BT-549 breast = test system: BT-549 breast
MCF7 breast = test system: MCF7 breast
NCI/ADR-RES ovarian = test system: NCI/ADR-RES ovarian
U251 CNS = test system: U251 CNS
NCI-H522 lung = test system: NCI-H522 lung
IGROV1 ovarian = test system: IGROV1 ovarian
A498 renal = test system: A498 renal
MDA-MB-231 breast = test system: MDA-MB-231 breast
OVCAR-5 ovarian = test system: OVCAR-5 ovarian
A549 NSCLC = test system: A549 NSCLC
HL-60(TB) leukemia = test system: HL-60(TB) leukemia
SR leukemia = test system: SR leukemia
HOP-92 NSCLC = test system: HOP-92 NSCLC
HCT-116 colon = test system: HCT-116 colon
NCI-H460 lung = test system: NCI-H460 lung
SK-MEL-28 melanoma = test system: SK-MEL-28 melanoma
EKVX NSCLC = test system: EKVX NSCLC
SF-539 CNS = test system: SF-539 CNS
SF-268 CNS = test system: SF-268 CNS
UO-31 renal = test system: UO-31 renal
HCC-2998 colon = test system: HCC-2998 colon
RPMI-8226 leukemia = test system: RPMI-8226 leukemia
LOX IMVI melanoma = test system: LOX IMVI melanoma
MALME-3M melanoma = test system: MALME-3M melanoma
OVCAR-3 ovarian = test system: OVCAR-3 ovarian
UACC-62 melanoma = test system: UACC-62 melanoma
MDA-MB-435 = test system: MDA-MB-435
CCRF-CEM leukemia = test system: CCRF-CEM leukemia
786-0 renal = test system: 786-0 renal
OVCAR-4 ovarian = test system: OVCAR-4 ovarian
T-47D breast = test system: T-47D breast
MOLT-4 leukemia = test system: MOLT-4 leukemia
OVCAR-8 ovarian = test system: OVCAR-8 ovarian
SNB-75 CNS = test system: SNB-75 CNS
UACC-257 melanoma = test system: UACC-257 melanoma
K-562 leukemia = test system: K-562 leukemia
HCT-15 colon = test system: HCT-15 colon
SK-OV-3 ovarian = test system: SK-OV-3 ovarian
M14 melanoma = test system: M14 melanoma
DU-145 prostate = test system: DU-145 prostate
SN12C renal = test system: SN12C renal
HS 578T breast = test system: HS 578T breast
HT29 colon = test system: HT29 colon
SK-MEL-2 melanoma = test system: SK-MEL-2 melanoma
SK-MEL-5 melanoma = test system: SK-MEL-5 melanoma
TK-10 renal = test system: TK-10 renal
NCI-H226 lung = test system: NCI-H226 lung
HOP-62 NSCLC = test system: HOP-62 NSCLC
ACHN renal = test system: ACHN renal
SNB-19 CNS = test system: SNB-19 CNS
SW-620 colon = test system: SW-620 colon
COLO 205 colon = test system: COLO 205 colon
KM12 colon = test system: KM12 colon
NCI-H23 lung = test system: NCI-H23 lung

NCCC(O)(P(=O)(O)O)P(=O)(O)O
36.5 µM: TGI (NCI-H226 lung)
43.8 µM: TGI (SK-MEL-2 melanoma)
35.6 µM: TGI (OVCAR-8 ovarian)
inactive: GI50 (BT-549 breast) > 100 µM | GI50 (MCF7 breast) 37 µM | GI50 (NCI/ADR-RES ovarian) > 100 µM | GI50 (U251 CNS) > 100 µM | GI50 (NCI-H522 lung) > 100 µM | GI50 (IGROV1 ovarian) > 100 µM | GI50 (A498 renal) > 100 µM | GI50 (MDA-MB-231 breast) > 100 µM | GI50 (OVCAR-5 ovarian) > 100 µM | GI50 (A549 NSCLC) > 100 µM | GI50 (HL-60(TB) leukemia) > 100 µM | GI50 (SR leukemia) > 100 µM | GI50 (HOP-92 NSCLC) > 100 µM | GI50 (HCT-116 colon) > 100 µM | GI50 (NCI-H460 lung) > 100 µM | GI50 (SK-MEL-28 melanoma) > 100 µM | GI50 (EKVX NSCLC) > 100 µM | GI50 (SF-539 CNS) > 100 µM | GI50 (SF-268 CNS) > 100 µM | GI50 (UO-31 renal) > 100 µM | GI50 (HCC-2998 colon) > 100 µM | GI50 (RPMI-8226 leukemia) > 100 µM | GI50 (LOX IMVI melanoma) > 100 µM | GI50 (MALME-3M melanoma) > 100 µM | GI50 (OVCAR-3 ovarian) > 100 µM | GI50 (UACC-62 melanoma) 29.1 µM | GI50 (MDA-MB-435) > 100 µM | GI50 (CCRF-CEM leukemia) > 100 µM | GI50 (786-0 renal) > 100 µM | GI50 (OVCAR-4 ovarian) > 100 µM | GI50 (T-47D breast) > 100 µM | GI50 (MOLT-4 leukemia) > 100 µM | GI50 (OVCAR-8 ovarian) 3.47 µM | GI50 (SNB-75 CNS) > 100 µM | GI50 (UACC-257 melanoma) > 100 µM | GI50 (K-562 leukemia) > 100 µM | GI50 (HCT-15 colon) > 100 µM | GI50 (SK-OV-3 ovarian) > 100 µM | GI50 (M14 melanoma) > 100 µM | GI50 (DU-145 prostate) > 100 µM | GI50 (SN12C renal) > 100 µM | GI50 (HS 578T breast) > 100 µM | GI50 (HT29 colon) > 100 µM | GI50 (SK-MEL-2 melanoma) 4.43 µM | GI50 (SK-MEL-5 melanoma) > 100 µM | GI50 (TK-10 renal) > 100 µM | GI50 (NCI-H226 lung) 14.1 µM | GI50 (HOP-62 NSCLC) > 100 µM | GI50 (ACHN renal) 36 µM | GI50 (SNB-19 CNS) > 100 µM | GI50 (SW-620 colon) > 100 µM | GI50 (COLO 205 colon) > 100 µM | GI50 (KM12 colon) > 100 µM | GI50 (NCI-H23 lung) > 100 µM
> 100 µM: TGI (BT-549 breast) | TGI (MCF7 breast) | TGI (NCI/ADR-RES ovarian) | TGI (U251 CNS) | TGI (NCI-H522 lung) | TGI (IGROV1 ovarian) | TGI (A498 renal) | TGI (MDA-MB-231 breast) | TGI (OVCAR-5 ovarian) | TGI (A549 NSCLC) | TGI (HL-60(TB) leukemia) | TGI (SR leukemia) | TGI (HOP-92 NSCLC) | TGI (HCT-116 colon) | TGI (NCI-H460 lung) | TGI (SK-MEL-28 melanoma) | TGI (EKVX NSCLC) | TGI (SF-539 CNS) | TGI (SF-268 CNS) | TGI (UO-31 renal) | TGI (HCC-2998 colon) | TGI (RPMI-8226 leukemia) | TGI (LOX IMVI melanoma) | TGI (MALME-3M melanoma) | TGI (OVCAR-3 ovarian) | TGI (UACC-62 melanoma) | TGI (MDA-MB-435) | TGI (CCRF-CEM leukemia) | TGI (786-0 renal) | TGI (OVCAR-4 ovarian) | TGI (T-47D breast) | TGI (MOLT-4 leukemia) | TGI (SNB-75 CNS) | TGI (UACC-257 melanoma) | TGI (K-562 leukemia) | TGI (HCT-15 colon) | TGI (SK-OV-3 ovarian) | TGI (M14 melanoma) | TGI (DU-145 prostate) | TGI (SN12C renal) | TGI (HS 578T breast) | TGI (HT29 colon) | TGI (SK-MEL-5 melanoma) | TGI (TK-10 renal) | TGI (HOP-62 NSCLC) | TGI (ACHN renal) | TGI (SNB-19 CNS) | TGI (SW-620 colon) | TGI (COLO 205 colon) | TGI (KM12 colon) | TGI (NCI-H23 lung)
